Measurements published in the supplement of paper PMC11451515.

What was measured:
Settings in all cases: 48 h
SEM cells [1] = assay: cell viability relative to DMSO control; higher = less cytotoxic
Method in brief: (§1)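 In 1536-well plates, 5 μl of leukemia cells were seeded per well: 500 cells/well for NOMO1 or SEM and 1000 cells/well for P12-Ichikawa. Each line had first been adapted for at least four passages in each medium. Library compounds in DMSO were pin-dosed at 11 threefold concentrations between 47 μM and 0.79 nM, and CellTiter-Glo One luminescence was read after 48 h at 37°C. Viability is a per-plate percentage relative to DMSO wells, with cell-free wells as background.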

P12-Ichikawa [2] = assay: AUC of viability dose-response curve (% viability x log10 dose units); higher = less sensitive
Method in brief: (§2)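 Medium-adapted leukemia cells in 1536-well plates, at 500 or 1000 cells/well, were incubated for 48 h at 37°C with library compounds in DMSO at 11 threefold doses from 47 μM to 0.79 nM. CellTiter-Glo One luminescence normalised per plate to DMSO and cell-free wells was fitted with a four-parameter log-logistic model over log10 doses. Area under the curve was integrated from this fit by trapezoidal rule, with curves beyond full viability scaled and failed quality-control curves removed.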

SEM cells [3] = assay: as above
Method in brief: as §2

NOMO1 [4] = assay: as above
Method in brief: as §2

P12-Ichikawa [5] = assay: cell viability relative to DMSO control; higher = less cytotoxic
Method in brief: as §1

NOMO1 [6] = assay: as above
Method in brief: as §1

CC1Cc2ccccc2N1NC(=O)c1ccc(Cl)c([S+](N)(=O)[O-])c1 (configuration not stated)
cell viability [%], SEM cells [1]
Settings	HPLM + 10% dialyzed FBS	RPMI 5 mM glucose + 10% dialyzed FBS
0.000781 µM	111	107
0.00234 µM	108	109
0.00702 µM	104	117
0.0211 µM	106	106
0.0632 µM	94.3	102
0.19 µM	113	134
0.569 µM	128	100
1.71 µM	103	97
5.12 µM	112	113
15.4 µM	116	111
46.1 µM	97.9	107

AUC of viability dose-response curve
Settings	NOMO1 [4]	P12-Ichikawa [2]	SEM cells [3]
HPLM + 10% dialyzed FBS	467	463	474
RPMI 5 mM glucose + 10% FBS	445	473	426
RPMI 5 mM glucose + 10% dialyzed FBS	434	452	472

NC(=O)c1nnn(Cc2cc(Cl)c(C(=O)c3ccc(Cl)cc3)c(Cl)c2)c1N
cell viability [%]
Settings	NOMO1 [6]	P12-Ichikawa [5]	SEM cells [1]
HPLM + 10% dialyzed FBS, 0.000781 µM	111	–	112
HPLM + 10% dialyzed FBS, 0.00234 µM	134	–	116
HPLM + 10% dialyzed FBS, 0.00702 µM	124	–	125
HPLM + 10% dialyzed FBS, 0.0211 µM	127	–	107
HPLM + 10% dialyzed FBS, 0.0632 µM	120	–	127
HPLM + 10% dialyzed FBS, 0.19 µM	137	–	128
HPLM + 10% dialyzed FBS, 0.569 µM	124	–	135
HPLM + 10% dialyzed FBS, 1.71 µM	135	–	116
HPLM + 10% dialyzed FBS, 5.12 µM	111	–	111
HPLM + 10% dialyzed FBS, 15.4 µM	120	–	124
HPLM + 10% dialyzed FBS, 46.1 µM	78.7	–	89.4
RPMI 5 mM glucose + 10% FBS, 0.000781 µM	121	122	115
RPMI 5 mM glucose + 10% FBS, 0.00234 µM	123	137	133
RPMI 5 mM glucose + 10% FBS, 0.00702 µM	129	122	117
RPMI 5 mM glucose + 10% FBS, 0.0211 µM	124	130	114
RPMI 5 mM glucose + 10% FBS, 0.0632 µM	122	128	112
RPMI 5 mM glucose + 10% FBS, 0.19 µM	123	128	127
RPMI 5 mM glucose + 10% FBS, 0.569 µM	123	136	120
RPMI 5 mM glucose + 10% FBS, 1.71 µM	105	120	110
RPMI 5 mM glucose + 10% FBS, 5.12 µM	110	120	107
RPMI 5 mM glucose + 10% FBS, 15.4 µM	114	122	106
RPMI 5 mM glucose + 10% FBS, 46.1 µM	103	70.9	67.6
RPMI 5 mM glucose + 10% dialyzed FBS, 0.000781 µM	–	122	88.6
RPMI 5 mM glucose + 10% dialyzed FBS, 0.00234 µM	–	128	113
RPMI 5 mM glucose + 10% dialyzed FBS, 0.00702 µM	–	122	89.8
RPMI 5 mM glucose + 10% dialyzed FBS, 0.0211 µM	–	134	90.5
RPMI 5 mM glucose + 10% dialyzed FBS, 0.0632 µM	–	123	116
RPMI 5 mM glucose + 10% dialyzed FBS, 0.19 µM	–	119	95.1
RPMI 5 mM glucose + 10% dialyzed FBS, 0.569 µM	–	131	99.7
RPMI 5 mM glucose + 10% dialyzed FBS, 1.71 µM	–	121	101
RPMI 5 mM glucose + 10% dialyzed FBS, 5.12 µM	–	109	107
RPMI 5 mM glucose + 10% dialyzed FBS, 15.4 µM	–	118	97.6
RPMI 5 mM glucose + 10% dialyzed FBS, 46.1 µM	–	68	48.6

AUC of viability dose-response curve
Settings	NOMO1 [4]	P12-Ichikawa [2]	SEM cells [3]
HPLM + 10% dialyzed FBS	465	463	471
RPMI 5 mM glucose + 10% FBS	455	465	462
RPMI 5 mM glucose + 10% dialyzed FBS	470	464	464
